Experimental data published in patent US20150072020A1, “Dexanabinol or a Derivative Thereof for Use in the Treatment of Cancer in Dose Ranges of 2-30 mg/kg” (E-THERAPEUTICS PLC, priority 2012, published 2015).

Legend:
CDK2 = CDK2 (Homo sapiens, UniProt P24941); experiment: direct assay of dexanabinol against CDK2; type: biochemical; conditions: when directly assayed; heading names CDK2/A
Text: (§1) However, we believe that CDKs are affected indirectly, in circumstances where more of the intracellular network that might mediate such effects remains present.

CDK5 = CDK5 (Homo sapiens, UniProt Q00535); experiment: direct assay of dexanabinol against CDK5; type: biochemical; conditions: when directly assayed; heading names CDK5/p25
CDK5, sequence (Q00535 whole entry, species assumed): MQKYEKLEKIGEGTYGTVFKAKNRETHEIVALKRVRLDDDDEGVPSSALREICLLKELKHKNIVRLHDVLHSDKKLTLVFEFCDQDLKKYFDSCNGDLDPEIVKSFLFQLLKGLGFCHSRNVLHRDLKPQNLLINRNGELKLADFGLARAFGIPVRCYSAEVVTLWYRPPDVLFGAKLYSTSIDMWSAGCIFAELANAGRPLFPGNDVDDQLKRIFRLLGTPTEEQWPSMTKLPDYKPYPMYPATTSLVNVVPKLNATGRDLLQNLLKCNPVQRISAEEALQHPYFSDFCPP
CDK5, sequence (Q15078 99-307 partner limits assumed, species assumed): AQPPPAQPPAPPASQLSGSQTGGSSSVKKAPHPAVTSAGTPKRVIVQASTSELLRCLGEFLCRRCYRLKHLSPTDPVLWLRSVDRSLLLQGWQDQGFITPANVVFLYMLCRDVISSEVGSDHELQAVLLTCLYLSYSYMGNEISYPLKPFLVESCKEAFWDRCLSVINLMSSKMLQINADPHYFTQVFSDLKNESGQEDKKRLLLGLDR
Text: as §1

SMILES: CCCCCCC(C)(C)c1cc(O)c2c(c1)OC(C)(C)[C@H]1CC=C(CO)C[C@H]21 [Dexanabinol, 1, 1 dimethyl heptyl-(3S, 4S)-7-hydroxy-Δ^6-tetrahydrocannabinol]
- direct activity against CDK2 (CDK2): no significant direct activity
- direct activity against CDK5 (CDK5): no significant direct activity
